Test results from patent US9636418B2 (priority 2013, dated 2017).
“And” between values parts separate entries of the source, which are not always exact repeats. Identical values can stand only once. Like-named read-outs stand apart in the source and are kept apart here.

What was measured:
Experiment in all cases: cell-based
[1] = target: T1, hNav1.4 (Homo sapiens, UniProt P35499); settings: for IC50: IonWorks Quattro, read-out: IC50 Nav1.4; for Nav1.4/Nav1.7: ratio of IonWorks Quattro IC50 values
[2] = target: T2, hNav1.7 (Homo sapiens, UniProt Q15858); settings: IonWorks Quattro; read-out: IC50 Nav1.7
[3] = target: hNav1.3 (Homo sapiens, UniProt Q9NY46); settings: IonWorks Quattro; read-out: IC50 Nav1.3
[4] = target: T2, hNav1.7; format: cell-based; settings: PatchXpress, read-out: PX hNav1.7 Tonic IC50
[5] = target: T3, hNav1.5 (Homo sapiens, UniProt Q14524); settings: PatchXpress, read-out: PX hNav1.5 Tonic IC50
[6] = target: T1, hNav1.4; settings: for IC50: PatchXpress, read-out: PX hNav1.4 Tonic IC50
[7] = target: T3, hNav1.5; settings: IonWorks Quattro; read-out: IC50 Nav1.5
[8] = * = at high concentrations compound would wash off slowly or not at all

hNav1.3, sequence (Q9NY46 whole entry): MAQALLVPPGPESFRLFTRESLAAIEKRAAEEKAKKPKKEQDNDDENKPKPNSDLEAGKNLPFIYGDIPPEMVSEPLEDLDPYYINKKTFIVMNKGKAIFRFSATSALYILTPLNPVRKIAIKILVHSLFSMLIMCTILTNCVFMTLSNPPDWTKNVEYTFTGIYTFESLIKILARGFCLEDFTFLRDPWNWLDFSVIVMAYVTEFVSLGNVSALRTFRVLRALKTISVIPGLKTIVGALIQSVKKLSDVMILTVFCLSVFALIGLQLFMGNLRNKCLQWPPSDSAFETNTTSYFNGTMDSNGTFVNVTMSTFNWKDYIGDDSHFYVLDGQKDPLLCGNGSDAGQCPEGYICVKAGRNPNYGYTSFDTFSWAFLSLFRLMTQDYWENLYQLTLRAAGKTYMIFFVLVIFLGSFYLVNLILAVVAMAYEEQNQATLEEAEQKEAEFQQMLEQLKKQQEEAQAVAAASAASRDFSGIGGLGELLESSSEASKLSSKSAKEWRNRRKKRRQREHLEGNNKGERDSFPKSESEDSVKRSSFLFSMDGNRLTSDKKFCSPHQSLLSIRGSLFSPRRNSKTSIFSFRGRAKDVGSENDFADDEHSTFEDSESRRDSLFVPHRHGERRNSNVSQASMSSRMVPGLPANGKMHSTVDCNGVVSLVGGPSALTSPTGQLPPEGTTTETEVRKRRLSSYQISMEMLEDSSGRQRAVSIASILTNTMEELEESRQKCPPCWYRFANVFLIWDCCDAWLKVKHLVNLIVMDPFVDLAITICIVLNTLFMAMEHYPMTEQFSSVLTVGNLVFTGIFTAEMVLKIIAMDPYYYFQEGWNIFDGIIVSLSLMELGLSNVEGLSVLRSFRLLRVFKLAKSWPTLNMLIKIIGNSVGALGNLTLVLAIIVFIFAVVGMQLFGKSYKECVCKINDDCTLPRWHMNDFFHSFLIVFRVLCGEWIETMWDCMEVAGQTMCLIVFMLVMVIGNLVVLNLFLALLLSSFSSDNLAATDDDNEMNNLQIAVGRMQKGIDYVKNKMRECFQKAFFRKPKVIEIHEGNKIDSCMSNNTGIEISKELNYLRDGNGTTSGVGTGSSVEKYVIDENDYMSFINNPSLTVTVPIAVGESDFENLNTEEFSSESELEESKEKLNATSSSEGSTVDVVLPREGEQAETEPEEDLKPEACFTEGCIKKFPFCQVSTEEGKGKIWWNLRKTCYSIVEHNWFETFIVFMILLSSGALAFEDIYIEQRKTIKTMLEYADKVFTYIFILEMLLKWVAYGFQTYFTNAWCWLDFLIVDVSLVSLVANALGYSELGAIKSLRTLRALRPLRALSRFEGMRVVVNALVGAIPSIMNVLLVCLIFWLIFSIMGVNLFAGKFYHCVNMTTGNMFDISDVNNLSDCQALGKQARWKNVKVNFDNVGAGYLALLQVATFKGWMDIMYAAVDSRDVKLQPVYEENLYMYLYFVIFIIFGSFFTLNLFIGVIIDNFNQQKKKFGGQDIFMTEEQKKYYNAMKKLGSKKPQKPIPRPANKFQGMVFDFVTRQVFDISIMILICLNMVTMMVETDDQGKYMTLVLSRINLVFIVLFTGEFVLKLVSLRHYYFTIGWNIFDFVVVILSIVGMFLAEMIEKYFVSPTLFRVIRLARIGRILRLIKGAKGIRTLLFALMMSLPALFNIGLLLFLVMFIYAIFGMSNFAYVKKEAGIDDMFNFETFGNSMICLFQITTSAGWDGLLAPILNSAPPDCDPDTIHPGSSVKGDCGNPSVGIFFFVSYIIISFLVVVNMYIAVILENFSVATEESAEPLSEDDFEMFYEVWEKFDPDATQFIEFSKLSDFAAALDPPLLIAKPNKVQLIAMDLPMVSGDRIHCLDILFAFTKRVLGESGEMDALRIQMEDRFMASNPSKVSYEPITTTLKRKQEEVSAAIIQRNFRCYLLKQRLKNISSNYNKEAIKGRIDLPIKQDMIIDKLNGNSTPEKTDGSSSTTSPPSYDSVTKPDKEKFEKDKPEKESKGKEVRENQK
T3 sequence (Q14524 whole entry): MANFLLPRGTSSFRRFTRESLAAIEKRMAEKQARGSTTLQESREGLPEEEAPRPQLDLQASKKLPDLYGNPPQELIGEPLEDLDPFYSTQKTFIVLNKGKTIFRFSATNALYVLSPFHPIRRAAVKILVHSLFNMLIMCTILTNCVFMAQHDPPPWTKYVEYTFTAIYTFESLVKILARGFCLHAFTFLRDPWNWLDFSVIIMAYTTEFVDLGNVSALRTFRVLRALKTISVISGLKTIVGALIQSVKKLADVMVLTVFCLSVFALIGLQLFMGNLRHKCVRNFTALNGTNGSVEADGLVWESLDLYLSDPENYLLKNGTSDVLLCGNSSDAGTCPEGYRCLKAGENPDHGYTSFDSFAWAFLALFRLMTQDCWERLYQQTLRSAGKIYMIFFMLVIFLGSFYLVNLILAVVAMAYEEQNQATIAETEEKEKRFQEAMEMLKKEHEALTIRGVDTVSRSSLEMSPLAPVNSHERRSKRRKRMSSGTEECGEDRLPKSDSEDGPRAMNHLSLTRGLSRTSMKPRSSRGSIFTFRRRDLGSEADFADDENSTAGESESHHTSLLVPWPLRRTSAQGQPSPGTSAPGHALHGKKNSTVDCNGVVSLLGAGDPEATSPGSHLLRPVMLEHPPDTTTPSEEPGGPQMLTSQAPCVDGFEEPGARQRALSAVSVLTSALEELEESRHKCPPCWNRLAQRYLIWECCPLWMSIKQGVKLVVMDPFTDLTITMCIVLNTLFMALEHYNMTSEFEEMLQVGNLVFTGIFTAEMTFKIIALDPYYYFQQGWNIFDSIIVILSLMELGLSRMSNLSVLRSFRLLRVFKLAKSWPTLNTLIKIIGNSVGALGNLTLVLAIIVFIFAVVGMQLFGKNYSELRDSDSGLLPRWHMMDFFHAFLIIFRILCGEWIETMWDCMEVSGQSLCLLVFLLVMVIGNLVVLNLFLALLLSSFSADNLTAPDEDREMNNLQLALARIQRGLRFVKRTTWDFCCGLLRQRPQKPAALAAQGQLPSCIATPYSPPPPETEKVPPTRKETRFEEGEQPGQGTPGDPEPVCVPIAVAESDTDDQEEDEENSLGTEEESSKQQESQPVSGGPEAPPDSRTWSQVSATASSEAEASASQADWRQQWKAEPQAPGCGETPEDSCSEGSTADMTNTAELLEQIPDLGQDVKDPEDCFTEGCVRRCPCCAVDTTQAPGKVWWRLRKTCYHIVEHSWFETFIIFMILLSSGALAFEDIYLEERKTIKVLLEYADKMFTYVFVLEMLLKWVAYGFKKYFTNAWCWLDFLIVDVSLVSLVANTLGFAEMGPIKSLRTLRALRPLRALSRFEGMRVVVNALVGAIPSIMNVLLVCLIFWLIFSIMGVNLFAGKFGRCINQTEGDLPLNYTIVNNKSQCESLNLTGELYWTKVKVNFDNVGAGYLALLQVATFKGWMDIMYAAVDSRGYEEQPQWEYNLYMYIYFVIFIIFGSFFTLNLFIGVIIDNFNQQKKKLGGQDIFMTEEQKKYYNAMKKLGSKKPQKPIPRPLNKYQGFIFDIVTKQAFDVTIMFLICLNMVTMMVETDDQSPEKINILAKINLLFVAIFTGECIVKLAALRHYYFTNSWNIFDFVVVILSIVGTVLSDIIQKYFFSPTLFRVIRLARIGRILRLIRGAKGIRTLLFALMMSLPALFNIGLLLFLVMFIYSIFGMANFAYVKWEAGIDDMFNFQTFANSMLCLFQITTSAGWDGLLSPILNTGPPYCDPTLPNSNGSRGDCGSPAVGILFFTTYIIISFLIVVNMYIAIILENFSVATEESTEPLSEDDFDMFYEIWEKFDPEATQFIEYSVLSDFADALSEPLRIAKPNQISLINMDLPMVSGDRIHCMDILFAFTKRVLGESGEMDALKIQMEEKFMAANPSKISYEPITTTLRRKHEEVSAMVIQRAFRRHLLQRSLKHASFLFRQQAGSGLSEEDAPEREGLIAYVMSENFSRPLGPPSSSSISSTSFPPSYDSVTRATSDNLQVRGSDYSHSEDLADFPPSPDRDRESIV

SMILES: CSCC[C@@H]1NC(=O)[C@H](Cc2c[nH]c3ccccc23)NC(=O)[C@H](CCCCN)NC(=O)[C@H](CCC(N)=O)NC(=O)[C@@H](NC(=O)[C@@H](N)Cc2ccc(O)cc2)CSSC[C@@H]2NC(=O)[C@@H]3CSSC[C@@H](C(=O)N[C@@H](CCCNC(=N)N)C(=O)N[C@@H](CCCCN)C(=O)N[C@@H](Cc4ccc(O)cc4)C(=O)N[C@@H](Cc4ccc5ccccc5c4)C(N)=O)NC(=O)[C@H](Cc4c[nH]c5ccccc45)NC(=O)[C@H](CC(C)C)NC(=O)[C@H](CCCCN)NC(=O)[C@H](CSSC[C@H](NC(=O)[C@H]([C@@H](C)O)NC(=O)[C@H](Cc4c[nH]c5ccccc45)NC1=O)C(=O)N[C@@H](CC(=O)O)C(=O)N[C@@H](CO)C(=O)N[C@@H](CCCCN)C(=O)N[C@@H](CCCNC(=N)N)C(=O)N[C@@H](C)C(=O)N3)NC(=O)[C@H](CCC(=O)O)NC(=O)[C@H](CC(C)C)NC(=O)CNC(=O)[C@H](CCC(=O)O)NC2=O [compound 233]
- IC50 [1]: > 5000 nM
- IC50 [2]: 44 nM
- IC50 [3]: 2200 nM
- IC50 [4, 8]: 4.6 nM
- IC50 [5, 8]: 1990 nM
- IC50 [6, 8]: 1220 nM
- IC50 [7]: > 5000 nM

SMILES: CSCC[C@@H]1NC(=O)[C@H](Cc2c[nH]c3ccccc23)NC(=O)[C@H](CCCCN)NC(=O)[C@H](CCC(N)=O)NC(=O)[C@@H](NC(=O)[C@@H](N)Cc2ccc(O)cc2)CSSC[C@@H]2NC(=O)[C@@H]3CSSC[C@@H](C(=O)N[C@@H](CCCNC(=N)N)C(=O)N[C@@H](CCCCN)C(=O)N[C@@H](Cc4ccc(O)cc4)C(=O)N[C@@H](CC(C)C)C(N)=O)NC(=O)[C@H](Cc4c[nH]c5ccccc45)NC(=O)[C@H](CC(C)C)NC(=O)[C@H](CCCCN)NC(=O)[C@H](CSSC[C@H](NC(=O)[C@H]([C@@H](C)O)NC(=O)[C@H](Cc4c[nH]c5ccccc45)NC1=O)C(=O)N[C@@H](CC(=O)O)C(=O)N[C@@H](CO)C(=O)N[C@@H](CCCCN)C(=O)N[C@@H](CCCNC(=N)N)C(=O)N[C@@H](C)C(=O)N3)NC(=O)[C@H](CCC(=O)O)NC(=O)[C@H](CC(C)C)NC(=O)CNC(=O)[C@H](CCC(=O)O)NC2=O [compound 238]
- IC50 [1]: 4500 nM and > 5000 nM
- IC50 [2]: 84 nM and 230 nM
- IC50 [3]: 3000 nM and > 5000 nM
- IC50 [4, 8]: 2.6 nM
- IC50 [5, 8]: 7330 nM
- IC50 [6, 8]: 626 nM
- IC50 [7]: > 5000 nM

SMILES: CC[C@H](C)[C@H](NC(=O)[C@H](Cc1ccc(O)cc1)NC(=O)[C@H](CCCCN)NC(=O)[C@H](CCCNC(=N)N)NC(=O)[C@@H]1CSSC[C@@H]2NC(=O)[C@H](C)NC(=O)[C@H](CCCNC(=N)N)NC(=O)[C@H](CCCCN)NC(=O)[C@H](CO)NC(=O)[C@H](CC(=O)O)NC(=O)[C@@H]3CSSC[C@H](NC(=O)[C@H](CCC(=O)O)NC(=O)[C@H](CC(C)C)NC(=O)CNC(=O)[C@H](CCC(=O)O)NC(=O)[C@H](CSSC[C@H](NC(=O)[C@@H](N)Cc4ccc(O)cc4)C(=O)N[C@@H](CCC(N)=O)C(=O)N[C@@H](CCCCN)C(=O)N[C@@H](Cc4c[nH]c5ccccc45)C(=O)N[C@@H](CCSC)C(=O)N[C@@H](Cc4c[nH]c5ccccc45)C(=O)N[C@@H]([C@@H](C)O)C(=O)N3)NC2=O)C(=O)N[C@@H](CCCCN)C(=O)N[C@@H](CC(C)C)C(=O)N[C@@H](Cc2cccc3ccccc23)C(=O)N1)C(N)=O [compound 218]
- IC50 [1]: > 7000 nM
- IC50 [2]: 300 nM
- IC50 [3]: > 7000 nM
- IC50 [4, 8]: 12 nM
- IC50 [5, 8]: 10000 nM
- IC50 [6, 8]: 5210 nM
- IC50 [7]: > 7000 nM

SMILES: CC[C@H](C)[C@H](NC(=O)[C@H](Cc1ccc(O)cc1)NC(=O)[C@H](CCCCN)NC(=O)[C@H](CCCNC(=N)N)NC(=O)[C@@H]1CSSC[C@@H]2NC(=O)[C@H](C)NC(=O)[C@H](CCCNC(=N)N)NC(=O)[C@H](CCCCN)NC(=O)[C@H](CO)NC(=O)[C@H](CC(=O)O)NC(=O)[C@@H]3CSSC[C@H](NC(=O)[C@H](CCC(=O)O)NC(=O)[C@H](CC(C)C)NC(=O)CNC(=O)[C@H](CCC(=O)O)NC(=O)[C@H](CSSC[C@H](NC(=O)[C@@H](N)Cc4ccc(O)cc4)C(=O)N[C@@H](CCC(N)=O)C(=O)N[C@@H](CCCCN)C(=O)N[C@@H](Cc4ccc(I)cc4)C(=O)N[C@@H](CCSC)C(=O)N[C@@H](Cc4c[nH]c5ccccc45)C(=O)N[C@@H]([C@@H](C)O)C(=O)N3)NC2=O)C(=O)N[C@@H](CCCCN)C(=O)N[C@@H](CC(C)C)C(=O)N[C@@H](Cc2c[nH]c3ccccc23)C(=O)N1)C(N)=O [compound 192]
- IC50 [1]: 3400 nM
- Nav1.4/Nav1.7 [1]: 30
- IC50 [2]: 110 nM
- IC50 [3]: 1300 nM
- IC50 [4, 8]: 2.2 nM
- IC50 [5, 8]: > 1000 nM
- IC50 [6, 8]: 172 nM
- Nav1.4/Nav1.7 ([6]; ratio of PX IC50 values): 78
- IC50 [7]: > 5000 nM

SMILES: CCC[C@H](NC(=O)[C@H](CCCCN)NC(=O)[C@H](CCCNC(=N)N)NC(=O)[C@@H]1CSSC[C@@H]2NC(=O)[C@H](C)NC(=O)[C@H](CCCNC(=N)N)NC(=O)[C@H](CCCCN)NC(=O)[C@H](CO)NC(=O)[C@H](CC(=O)O)NC(=O)[C@@H]3CSSC[C@H](NC(=O)[C@H](CCC(=O)O)NC(=O)[C@H](CC(C)C)NC(=O)CNC(=O)[C@H](CCC(=O)O)NC(=O)[C@H](CSSC[C@H](NC(=O)[C@@H](N)Cc4ccc(O)cc4)C(=O)N[C@@H](CCC(N)=O)C(=O)N[C@@H](CCCCN)C(=O)N[C@@H](Cc4c[nH]c5ccccc45)C(=O)N[C@@H](CCSC)C(=O)N[C@@H](Cc4c[nH]c5ccccc45)C(=O)N[C@@H]([C@@H](C)O)C(=O)N3)NC2=O)C(=O)N[C@@H](CCCCN)C(=O)N[C@@H](CC(C)C)C(=O)N[C@@H](Cc2c[nH]c3ccccc23)C(=O)N1)C(=O)N[C@H](C(N)=O)[C@@H](C)CC [compound 136]
- IC50 [1]: > 5000 nM
- Nav1.4/Nav1.7 [1]: 66 and 34
- IC50 [2]: 80 nM and 150 nM
- IC50 [3]: > 5000 nM
- IC50 [4, 8]: 12.8 nM
- IC50 [5, 8]: 7820 nM
- IC50 [6, 8]: 5190 nM
- IC50 [7]: 8900 nM and 15800 nM

SMILES: CC[C@H](C)[C@H](NC(=O)[C@H](CCCNC(N)=O)NC(=O)[C@H](CCCCN)NC(=O)[C@H](CCCNC(=N)N)NC(=O)[C@@H]1CSSC[C@@H]2NC(=O)[C@H](C)NC(=O)[C@H](CCCNC(=N)N)NC(=O)[C@H](CCCCN)NC(=O)[C@H](CO)NC(=O)[C@H](CC(=O)O)NC(=O)[C@@H]3CSSC[C@H](NC(=O)[C@H](CCC(=O)O)NC(=O)[C@H](CC(C)C)NC(=O)CNC(=O)[C@H](CCC(=O)O)NC(=O)[C@H](CSSC[C@H](NC(=O)[C@@H](N)Cc4ccc(O)cc4)C(=O)N[C@@H](CCC(N)=O)C(=O)N[C@@H](CCCCN)C(=O)N[C@@H](Cc4c[nH]c5ccccc45)C(=O)N[C@@H](CCSC)C(=O)N[C@@H](Cc4c[nH]c5ccccc45)C(=O)N[C@@H]([C@@H](C)O)C(=O)N3)NC2=O)C(=O)N[C@@H](CCCCN)C(=O)N[C@@H](CC(C)C)C(=O)N[C@@H](Cc2c[nH]c3ccccc23)C(=O)N1)C(N)=O [compound 135]
- IC50 [1]: > 5000 nM
- Nav1.4/Nav1.7 [1]: 46
- IC50 [2]: 110 nM
- IC50 [3]: > 5000 nM
- IC50 [4, 8]: 5.6 nM
- IC50 [5, 8]: > 10000 nM
- IC50 [6, 8]: 6020 nM
- IC50 [7]: 12000 nM

SMILES: CC[C@H](C)[C@H](NC(=O)[C@@H](NC(=O)[C@H](CCCCN)NC(=O)[C@H](CCCNC(=N)N)NC(=O)[C@@H]1CSSC[C@@H]2NC(=O)[C@H](C)NC(=O)[C@H](CCCNC(=N)N)NC(=O)[C@H](CCCCN)NC(=O)[C@H](CO)NC(=O)[C@H](CC(=O)O)NC(=O)[C@@H]3CSSC[C@H](NC(=O)[C@H](Cc4ccc(O)cc4)NC(=O)[C@H](CC(C)C)NC(=O)CNC(=O)[C@H](CCC(=O)O)NC(=O)[C@H](CSSC[C@H](NC(=O)[C@@H](N)Cc4ccc(O)cc4)C(=O)N[C@@H](CCC(N)=O)C(=O)N[C@@H](CCCCN)C(=O)N[C@@H](Cc4c[nH]c5ccccc45)C(=O)N[C@@H](CCSC)C(=O)N[C@@H](Cc4c[nH]c5ccccc45)C(=O)N[C@@H]([C@@H](C)O)C(=O)N3)NC2=O)C(=O)N[C@@H](CCCCN)C(=O)N[C@@H](CC(C)C)C(=O)N[C@@H](Cc2c[nH]c3ccccc23)C(=O)N1)[C@@H](C)CC)C(N)=O [compound 124]
- IC50 [1]: 4000 nM
- Nav1.4/Nav1.7 [1]: 43
- IC50 [2]: 90 nM
- IC50 [3]: > 5000 nM
- IC50 [4, 8]: 5.9 nM
- IC50 [5, 8]: > 10000 nM
- IC50 [6, 8]: 1570 nM
- IC50 [7]: 10800 nM

SMILES: C#CC[C@@H]1NC(=O)[C@H](CCCNC(=N)N)NC(=O)[C@H](CCCCN)NC(=O)[C@H](CO)NC(=O)[C@H](CC(=O)O)NC(=O)[C@@H]2CSSC[C@@H]3NC(=O)[C@H](CCCNC(=N)N)NC(=O)[C@H](CC(C)C)NC(=O)CNC(=O)[C@H](CCC(=O)O)NC(=O)[C@H](CSSC[C@H](NC(=O)[C@@H](N)Cc4ccc(O)cc4)C(=O)N[C@@H](CCC(N)=O)C(=O)N[C@@H](CCCCN)C(=O)N[C@@H](Cc4c[nH]c5ccccc45)C(=O)N[C@@H](CCCC)C(=O)N[C@@H](Cc4c[nH]c5ccccc45)C(=O)N[C@@H]([C@@H](C)O)C(=O)N2)NC(=O)[C@H](CSSC[C@@H](C(=O)N[C@@H](CCCNC(=N)N)C(=O)N[C@@H](CCCCN)C(=O)N[C@H](C(=O)N[C@H](C(N)=O)[C@@H](C)CC)[C@@H](C)CC)NC(=O)[C@H](Cc2c[nH]c4ccccc24)NC(=O)[C@H](CC(C)C)NC(=O)[C@H](CCCCN)NC3=O)NC1=O [compound 283]
- IC50 [1]: 90 nM
- Nav1.4/Nav1.7 [1]: 1
- IC50 [2]: 70 nM
- IC50 [3]: 60 nM
- IC50 ([4]; tonic block): 0.3 nM
- IC50 ([5]; tonic block): 630 nM
- IC50 ([6]; tonic block): 5 nM
- Nav1.4/Nav1.7 ([6]; ratio of PX tonic IC50 values): 17
- IC50 [7]: > 7000 nM
